# System: rice plant
# Experiment: not given
# Details: blast prevention test, 200 ppm
row,SMILES,Degree of chemical injury
1,CCCCc1c(C)nc(-n2nc(C)cc2C)nc1SCC [Compound 42],0
2,CCCCc1c(C)nc(-n2nc(C)cc2C)nc1OCC [Compound 41],0

# System: Cochliobolus miyabeanus
# Experiment: Antimicrobial activity (mycelium growth inhibition, PDA medium)
# Format: cell-based
# Details: Bipolaris oryzae, read-out: ED50 value
row,SMILES,IC50
1,CCCCc1c(C)nc(-n2nc(C)cc2C)nc1SCC [Compound 42],1.8 µg/mL
2,CCCCc1c(C)nc(-n2nc(C)cc2C)nc1OCC [Compound 41],1.4 µg/mL

# System: Pyricularia oryzae
# Experiment: not given
# Format: in vivo, Pyricularia oryzae on rice plant (variety: Asahi)
# Details: rice blast, curative treatment; sprayed liquid 200 ppm; 5 days after spraying
row,SMILES,Control Value
1,CCCCc1c(C)nc(-n2nc(C)cc2C)nc1SCC [Compound 42],100%
2,CCCCc1c(C)nc(-n2nc(C)cc2C)nc1OCC [Compound 41],100%

# System: Pyricularia oryzae
# Experiment: microbe, parasite or virus in culture
# Format: cell-based
# Details: read-out: ED50 value
row,SMILES,IC50
1,CCCCc1c(C)nc(-n2nc(C)cc2C)nc1SCC [Compound 42],0.02 µg/mL
2,CCCCc1c(C)nc(-n2nc(C)cc2C)nc1OCC [Compound 41],0.01 µg/mL

# System: cucumber plant
# Experiment: not given
# Details: in vivo
row,SMILES,Degree of chemical injury
1,CCCCc1c(C)nc(-n2nc(C)cc2C)nc1SCC [Compound 42],0
2,CCCCc1c(C)nc(-n2nc(C)cc2C)nc1OCC [Compound 41],0

# System: rice plant
# Experiment: not given
# Details: blast curative test, 200 ppm
row,SMILES,Degree of chemical injury
1,CCCCc1c(C)nc(-n2nc(C)cc2C)nc1SCC [Compound 42],0
2,CCCCc1c(C)nc(-n2nc(C)cc2C)nc1OCC [Compound 41],0

# System: Diaporthe citri
# Experiment: Antimicrobial activity (mycelium growth inhibition, PDA medium)
# Format: cell-based
# Details: 24° C., read-out: ED50 value
# Protocol: (§1) Experimental Example 5 (Test for Antimicrobial Activity Against Various Plant Phathogenic Fungi)
# (§2) 1 ml of an acetone solution of each of test compounds and 20 ml of the PDA medium (50° C.) to prepare media containing the chemical in different concentrations, followed by charging into a petri dish with a diameter of 9 cm where it was solidified flat. On the central portion of the chemical-containing medium was inoculated a fungus-containing medium a piece of ager black-containing mycelia which was obtained by punching by means of a cork borer the tip portion of mycelia of each test fungus which had been cultured in advance in the PDA medium, followed by cultivating at 24° C. Two to six days after the cultivation, the diameter of the mycelia was measured and mycelium growth inhibiting rate was calculated from a comparison with that of a non-treated plot. The mycelium growth inhibiting rate was plotted on a logarithmic probability paper to determine an ED50 value.
row,SMILES,IC50
1,CCCCc1c(C)nc(-n2nc(C)cc2C)nc1SCC [Compound 42],2.7 µg/mL
2,CCCCc1c(C)nc(-n2nc(C)cc2C)nc1OCC [Compound 41],2 µg/mL

# System: Endothia parasitica
# Experiment: as above
# Format: cell-based
# Details: Cryphonectria parasitica, 24° C., read-out: ED50 value
# Protocol: as §1, §2
row,SMILES,IC50
1,CCCCc1c(C)nc(-n2nc(C)cc2C)nc1SCC [Compound 42],3.8 µg/mL
2,CCCCc1c(C)nc(-n2nc(C)cc2C)nc1OCC [Compound 41],4.6 µg/mL

# System: Sclerotinia fructigena
# Experiment: as above
# Format: cell-based
# Details: 24° C., read-out: ED50 value
# Protocol: as §1, §2
row,SMILES,IC50
1,CCCCc1c(C)nc(-n2nc(C)cc2C)nc1SCC [Compound 42],2.1 µg/mL
2,CCCCc1c(C)nc(-n2nc(C)cc2C)nc1OCC [Compound 41],1.5 µg/mL

# System: Alternaria padwikii
# Experiment: as above
# Format: cell-based
# Details: 24° C., read-out: ED50 value
# Protocol: as §1, §2
row,SMILES,IC50
1,CCCCc1c(C)nc(-n2nc(C)cc2C)nc1SCC [Compound 42],0.7 µg/mL
2,CCCCc1c(C)nc(-n2nc(C)cc2C)nc1OCC [Compound 41],0.7 µg/mL

# System: Phizoctonia solani
# Experiment: as above
# Format: cell-based
# Details: 24° C., read-out: ED50 value
# Protocol: as §1, §2
row,SMILES,IC50
1,CCCCc1c(C)nc(-n2nc(C)cc2C)nc1SCC [Compound 42],1.3 µg/mL
2,CCCCc1c(C)nc(-n2nc(C)cc2C)nc1OCC [Compound 41],1.4 µg/mL

# System: Glomerella cingulata
# Experiment: as above
# Format: cell-based
# Details: Colletotrichum gloeosporioides, 24° C., read-out: ED50 value
# Protocol: as §1, §2
row,SMILES,IC50
1,CCCCc1c(C)nc(-n2nc(C)cc2C)nc1SCC [Compound 42],4 µg/mL
2,CCCCc1c(C)nc(-n2nc(C)cc2C)nc1OCC [Compound 41],4.1 µg/mL

# System: Sclerotinia sclerotiorum
# Experiment: as above
# Format: cell-based
# Details: 24° C., read-out: ED50 value
# Protocol: as §1, §2
row,SMILES,IC50
1,CCCCc1c(C)nc(-n2nc(C)cc2C)nc1SCC [Compound 42],5.2 µg/mL
2,CCCCc1c(C)nc(-n2nc(C)cc2C)nc1OCC [Compound 41],3.8 µg/mL

# System: Pellicularia sasakii
# Experiment: as above
# Format: cell-based
# Details: 24° C., read-out: ED50 value
# Protocol: as §1, §2
row,SMILES,IC50
1,CCCCc1c(C)nc(-n2nc(C)cc2C)nc1SCC [Compound 42],2 µg/mL
2,CCCCc1c(C)nc(-n2nc(C)cc2C)nc1OCC [Compound 41],1.1 µg/mL

# System: Curvularia sp.
# Experiment: as above
# Format: cell-based
# Details: 24° C., read-out: ED50 value
# Protocol: as §1, §2
row,SMILES,IC50
1,CCCCc1c(C)nc(-n2nc(C)cc2C)nc1SCC [Compound 42],1.4 µg/mL
2,CCCCc1c(C)nc(-n2nc(C)cc2C)nc1OCC [Compound 41],1.6 µg/mL

# System: Helminthosporium gramineum
# Experiment: as above
# Format: cell-based
# Details: 24° C., read-out: ED50 value
# Protocol: as §1, §2
row,SMILES,IC50
1,CCCCc1c(C)nc(-n2nc(C)cc2C)nc1SCC [Compound 42],5.2 µg/mL
2,CCCCc1c(C)nc(-n2nc(C)cc2C)nc1OCC [Compound 41],2.8 µg/mL

# System: Mycosphaerella melonis
# Experiment: as above
# Format: cell-based
# Details: 24° C., read-out: ED50 value
# Protocol: as §1, §2
row,SMILES,IC50
1,CCCCc1c(C)nc(-n2nc(C)cc2C)nc1SCC [Compound 42],0.9 µg/mL
2,CCCCc1c(C)nc(-n2nc(C)cc2C)nc1OCC [Compound 41],0.7 µg/mL

# System: Botrytis cinerea
# Experiment: as above
# Format: cell-based
# Details: 24° C., read-out: ED50 value
# Protocol: as §1, §2
row,SMILES,IC50
1,CCCCc1c(C)nc(-n2nc(C)cc2C)nc1SCC [Compound 42],3.7 µg/mL
2,CCCCc1c(C)nc(-n2nc(C)cc2C)nc1OCC [Compound 41],4.5 µg/mL

# System: Fusarium nivale
# Experiment: as above
# Format: cell-based
# Details: Microdochium nivale, 24° C., read-out: ED50 value
# Protocol: as §1, §2
row,SMILES,IC50
1,CCCCc1c(C)nc(-n2nc(C)cc2C)nc1SCC [Compound 42],2 µg/mL
2,CCCCc1c(C)nc(-n2nc(C)cc2C)nc1OCC [Compound 41],0.2 µg/mL

# System: Penicillium digitatum
# Experiment: as above
# Format: cell-based
# Details: 24° C., read-out: ED50 value
# Protocol: as §1, §2
row,SMILES,IC50
1,CCCCc1c(C)nc(-n2nc(C)cc2C)nc1SCC [Compound 42],2 µg/mL
2,CCCCc1c(C)nc(-n2nc(C)cc2C)nc1OCC [Compound 41],1.1 µg/mL

# System: Phoma lingam
# Experiment: as above
# Format: cell-based
# Details: Plenodomus lingam, 24° C., read-out: ED50 value
# Protocol: as §1, §2
row,SMILES,IC50
1,CCCCc1c(C)nc(-n2nc(C)cc2C)nc1SCC [Compound 42],3.2 µg/mL
2,CCCCc1c(C)nc(-n2nc(C)cc2C)nc1OCC [Compound 41],2.6 µg/mL

# System: rice plant
# Experiment: not given
# Details: in vivo
row,SMILES,Degree of chemical injury
1,CCCCc1c(C)nc(-n2nc(C)cc2C)nc1SCC [Compound 42],0
2,CCCCc1c(C)nc(-n2nc(C)cc2C)nc1OCC [Compound 41],0

# System: Cochliobolus miyabeanus
# Experiment: Effect of controlling rice brown spot, Experimental Example 3
# Format: in vivo, Cochliobolus miyabeanus on rice plant (variety: Asahi)
# Details: sprayed liquid 500 ppm, 5 days after inoculation
row,SMILES,Control Value
1,CCCCc1c(C)nc(-n2nc(C)cc2C)nc1SCC [Compound 42],100%
2,CCCCc1c(C)nc(-n2nc(C)cc2C)nc1OCC [Compound 41],100%

# System: Pyricularia oryzae
# Experiment: not given
# Format: in vivo, Pyricularia oryzae on rice plant (variety: Asahi)
# Details: rice blast, prevention; 200 ppm; 5 days after inoculation
row,SMILES,Control Value
1,CCCCc1c(C)nc(-n2nc(C)cc2C)nc1SCC [Compound 42],100%
2,CCCCc1c(C)nc(-n2nc(C)cc2C)nc1OCC [Compound 41],100%

# System: Sphaerotheca friliginea
# Experiment: Effect of controlling cucumber powdery mildew, Experimental Example 4
# Format: in vivo
# Details: sprayed liquid 200 ppm, 10 days after inoculation
# Protocol: 10 ml of each of test liquids diluted to a predetermined concentration was sprayed over seedlings of a cucumber plant (variety: Sagami Hanpaku) grown up to the first leaf stage which has been soil cultured in an unglazed pot with a diameter of 9 cm in a green house. After allowing to stand overnight, the seedlings were sprayed for inoculation with a spore suspension of Sphaerotheca friliginea. Ten days after the inoculation, the rate of a lesion area (%) was checked and a control value was evaluated from the following equation. The degree of chemical injury against a cucumber plant was determined in the same manner as in Experimental Example.
row,SMILES,Control Value
1,CCCCc1c(C)nc(-n2nc(C)cc2C)nc1SCC [Compound 42],92%
2,CCCCc1c(C)nc(-n2nc(C)cc2C)nc1OCC [Compound 41],94%

# Source: patent US4405743A, “Pyrazolylpyrimidine derivatives” (Hokko Chemical Industry Co., Ltd., priority 1981, dated 1983)
